By Ki is commonly meant a dissociation constant, usually derived from enzyme kinetics or from competition with a known ligand. Lower therefore signals higher affinity.

This note sets out measurements from patent publication US5846942A, “Cholecystokinin antagonists, their preparation and therapeutic use” (Warner-Lambert Company, priority 1996, dated 1998).

In the experiment the target is T1, Central CCK Receptors (Mus musculus, UniProt P56481).
T1 construct: from tissue; host or cells: cerebral cortex membranes of male CFLP mice (30-40 g)
T1 sequence (P56481 1-453): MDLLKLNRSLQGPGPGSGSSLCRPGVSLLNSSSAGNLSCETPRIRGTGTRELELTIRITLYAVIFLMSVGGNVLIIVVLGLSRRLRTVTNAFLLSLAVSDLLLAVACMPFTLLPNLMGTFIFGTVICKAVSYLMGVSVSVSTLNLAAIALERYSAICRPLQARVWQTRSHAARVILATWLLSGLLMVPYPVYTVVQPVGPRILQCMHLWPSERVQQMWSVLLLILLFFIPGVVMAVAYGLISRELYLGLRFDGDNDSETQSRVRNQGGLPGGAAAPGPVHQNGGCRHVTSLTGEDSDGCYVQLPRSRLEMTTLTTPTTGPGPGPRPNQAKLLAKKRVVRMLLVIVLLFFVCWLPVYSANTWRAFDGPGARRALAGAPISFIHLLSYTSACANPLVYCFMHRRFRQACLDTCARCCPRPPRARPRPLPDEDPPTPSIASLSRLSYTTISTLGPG
Description: Binding to central CCK receptors, displacement of tritiated pentagastrin from cerebral cortical membranes of male CFLP mice. Details: species or system mouse (male CFLP). The note with it: cerebral cortexes taken from male CFLP mice; 2 nM tritiated-pentagastrin. The method, then: The biological activity of compounds of the present invention was evaluated employing an initial screening test which rapidly and accurately measured the binding of the tested compound to known CCK receptor sites. […] (See Hays et al, Neuropeptides 1:53-62, 1980; and Satuer et al, Science 208:1155-1156, 1980).
In this screening test, the cerebral cortices taken from male CFLP mice weighing between 30-40 g were dissected on ice, weighed, and homogenized in 10 volumes of 50 mM Tris-HCl buffer (pH 7.4 at 0°-4° C.). The resulting suspension was centrifuged, the supernate was discarded, and the pellet was washed by resuspension in Tris-HCl buffer followed by recentrifugation. The final pellet was resuspended in 20 volumes of […] Hepes buffer (pH 7.2 at 23° C.) containing 130 mM NaCl, […] KCl, […] MgCl2, […] EDTA, 5 mg/mL bovine albumin, and bacitracin (0.25 mg/mL).
In saturation studies, cerebral cortical membranes were incubated at 23° C. for 120 minutes in a final volume of 500 μL of Hepes incubation buffer (pH 7.2) together with […] tritiated-pentagastrin (Amersham International, England).
In the displacement experiments, membranes were incubated with a single concentration (2 nM) of ligand, together with increasing concentrations (10^-11 to […]) of competitive test compound. In each case, the nonspecific binding was defined as that persisting in the presence of the unlabeled octapeptide CCK26-33 (10^-6 M)
Following incubation, radioactivity bound to membranes was separated from that free in solution by rapid filtration through Whatman GF/B filters and washed three times with 4 mL of ice cold Tris-HCl buffer. Filters from samples incubated with tritiated-pentagastrin were placed in polyethylene vials with 4 mL of scintillation cocktail, and the radioactivity was estimated by liquid scintillation spectrometry (efficiency 47-52%).
Saturation curves for specific tritiated- pentagastrin binding to mouse cortical membranes were analyzed by the methods of Scatchard (Ann. New York Acad. Sci. 51:660-672, 1949, and Hill (J. Physiol. 40:IV-VIII, 1910), to provide estimates for the maximum number of binding sites (Bmax) and the equilibrium dissociation constant (Ka).
In displacement experiments, inhibition curves were analyzed by either logit-log plots or the iterative curve fitting computer program ALLFIT (DeLean, Munson and Redbard, 1978) to provide estimates of the IC50 and nH (apparent Hill coefficient) values).
The inhibition constant (Ki) of the test compound was then calculated according to the Cheng-Prusoff equation: [formula] where [L] is the concentration of radiolabel and Ka is the equilibrium dissociation constant.
In the case of `C[C@](Cc1c[nH]c2ccccc12)(NC(=O)OC1C2CC3CC(C2)CC1C3)C(=O)NCCC(=O)N[C@@H](Cc1ccccc1)C(=O)OCc1ccccc1` (stereo partly drawn) [Example 30, L-Phenylalanine,N-[N-[α-methyl-N-[(tricyclo[3.3.1.1^3,7]dec-2-yloxy)carbonyl]-d-tryotoohyl]-β-alanyl]-phenylmethyl ester], the Ki is over 10000 nM.

As for `CC(=O)OC[C@H](Cc1ccccc1)NC[C@@](C)(Cc1c[nH]c2ccccc12)NC(=O)OC1C2CC3CC(C2)CC1C3` (relative stereo) [Example 7, [R-(R*,S*)]-β-[[2-(1H-indol-3-ylmethyl)-2-[[tricyclo-[3.3.1.1^3,7]dec-2-yloxvcarbonyl]amino]propyl]amino]-benzenepropanol acetate], affinity was put at a Ki of 374 nM.

As for `N#CC(=Cc1c[nH]c2ccccc12)C(=O)NCCc1ccccc1` [Example 58], the Ki came to 110 nM.

In turn, `C[C@](Cc1c[nH]c2ccccc12)(NC(=O)OC1C2CC3CC(C2)CC1C3)C(=O)NCC(=O)OCc1ccccc1` (stereo partly drawn) [Example 36] displayed a Ki of 50 nM.

On to `C[C@@](Cc1c[nH]c2ccccc12)(NC(=O)OC1C2CC3CC(C2)CC1C3)C(=O)NCCC(=O)N[C@H](Cc1ccccc1)C(=O)O` (stereo partly drawn) [Example 35, Benzenepropanoic acid, α-[[3-[[3-[(1H-indol-3-yl)-2-methyl-1-oxo-2-[[(tricyclo[3.3.1.1^3,7]dec-2-yloxy)-carbonyl]amino]propyl]amino]-1-oxopropyllamino-, [S-(R*,S*)]-], for which affinity was put at a Ki of 540 nM. This Ki is about 11-fold higher than that of the compound before.

For `C[C@](CNC(=O)Cc1ccccc1)(Cc1c[nH]c2ccccc12)NC(=O)OC1C2CC3CC(C2)CC1C3` (stereo partly drawn) [Example 22, Carbamic acid, [1-(1H-indol-3-ylmethyl)-1-methyl-2-[(2-phenylacetyl)amino]ethyl]-, tricyclo[3.3.1.1^3,7]-dec-2-yl ester. (R)-], the affinity, expressed as Ki, was 704 nM.

The compound `CC(Cc1c[nH]c2ccccc12)(NC(=O)OC1C2CC3CC(C2)CC1C3)C(=O)NC1CCCCC1C(=O)O` (stereo not drawn) [Example 121, 2-[[3-(1H-indol-3-yl)-2-methyl-1-oxo-2-[[(tricyclo-[3.3.1.1^3,7]dec-2-yloxy)carbonyl]amino]propyl]amino]cyclohexanecarboxylic acid] showed a Ki of 2 nM.

The compound `C[C@](Cc1c[nH]c2ccccc12)(NC(=O)OC1C2CC3CC(C2)CC1C3)C(=O)NCCC(=O)N[C@@H](Cc1ccccc1)C(=O)O` (stereo partly drawn) [Example 33, S-Phenylalanine N-[N-[α-methyl-N-[(tricyclo-[3.3.1.1^3,7]dec-2-yloxy)carbonyl]-R-tryptophyl]-β-alanyl]] returned a Ki of 22 nM.

For `CC(=O)N(C[C@@](C)(Cc1c[nH]c2ccccc12)NC(=O)OC1C2CC3CC(C2)CC1C3)[C@H](CO)Cc1ccccc1` (stereo partly drawn) [Example 8, Tricyclo[3.3.1.1^3,7]dec-2-yl[R-(R*,S*)]-[acetyl[1-(hydroxymethyl)-2-phenylethyl]amino]-2-(1H-indol-3-ylmethyl)prop-2-ylcarbamate], the Ki was determined as 318 nM.

With `COC[C@H]1CCCN1NC(=O)[C@@](C)(Cc1c[nH]c2ccccc12)NC(=O)OC1C2CC3CC(C2)CC1C3` (stereo partly drawn) [Example 113, Tricyclo [3.3.1.1^3,7]dec-2-yl [R-(R*,R*)]-[-(1H-indol-3-ylmethyl)-2-[[2-(methoxymethyl)-1-pyrrolidinyl]amino]-1-methyl-2-oxoethyl]carbamate], affinity was put at a Ki of 2.5 nM. Against the preceding compound, the Ki is about 130-fold lower.

Compound `C[C@@](Cc1c[nH]c2ccccc12)(NC(=O)OC1C2CC3CC(C2)CC1C3)C(=O)NCCC(=O)N[C@H](Cc1ccccc1)C(N)=O` (stereo partly drawn) [Example 28] showed an inhibition constant (Ki) of 1400 nM.

On to `C[C@](Cc1c[nH]c2ccccc12)(NC(=O)OC1C2CC3CC(C2)CC1C3)C(=O)NC1CCCCC1C#N` (stereo partly drawn) [Example 116, Carbamic acid [2-[(2-cyanocyclohexyl)amino]-1-(1H-indol-3-ylmethyl)-1-methyl-2-oxoethyl]-1H-tricyclo-[3.3.1.1^3,7]dec-2-yl ester], for which the Ki amounted to 3.5 nM.

For the compound `C[C@](Cc1c[nH]c2ccccc12)(NC(=O)OC1C2CC3CC(C2)CC1C3)C(=O)NC1(C(=O)O)CCCCC1` (stereo partly drawn) [Example 120, (R)-1-[[2-(1H-indol-3-ylmethyl)-2-methyl-1-oxo-2-[[(tricyclo[3.3.1.1^3,7]dec-2-yloxy)carbonyl]amino]ethyl]amino]cyclohexanoic acid], the Ki was determined as 40 nM.

As to `CC(CNCC(O)c1ccccc1)(Cc1c[nH]c2ccccc12)NC(=O)OC1C2CC3CC(C2)CC1C3` (stereo not drawn) [Example 5, Tricyclo[3.3.1.1^3,7]dec-2-yl [1-[(2-hydroxy-2-phenyl-ethyl)amino]-3-(1H-indol-3-yl)-2-methylprop-2-yl]-carbamate], the affinity, expressed as Ki, was 220 nM. This Ki is about 5.5-fold higher than that of the compound before.

Turning to `C[C@](Cc1c[nH]c2ccccc12)(NC(=O)OC1C2CC3CC(C2)CC1C3)C(=O)NC1(CO)CCCCC1` (stereo partly drawn) [Example 122], the inhibition constant Ki was 59 nM.

The compound `C[C@](Cc1c[nH]c2ccccc12)(NC(=O)OC1C2CC3CC(C2)CC1C3)C(=O)NC1CC2CCC1C2` (stereo partly drawn) [Example 118, Tricyclo[3.3.1.1^3,7]dec-2yl ester [2-(bicyclo[2.2.1]hept-2-ylamino)-1-(1H-indol-3-ylmethyl)-1-methyl-2-oxoethyl]carbamate] returned a Ki of 53 nM.

`O=C(N[C@H](CN[C@H](CO)Cc1ccccc1)Cc1c[nH]c2ccccc12)OC1C2CC3CC(C2)CC1C3` (stereo partly drawn) [Example 2] showed a Ki of 1120 nM.

The compound `COC(=O)[C@@H](Cc1ccccc1)NC(=O)CCNC(=O)[C@@](C)(Cc1c[nH]c2ccccc12)NC(=O)OC1C2CC3CC(C2)CC1C3` (stereo partly drawn) [Example 29, 12-Oxa-2,5,9-triazatridecanoic acid, 3-(1H-indol-3-ylmethyl)-3-methyl-4.8.11-trioxo-10-(phenvlmethyl)-, tricyclo[3.3.1.1^3,7]dec-2-vl ester, [R-(R*,R*)]-] returned a Ki of 240 nM.

In the case of `C[C@](CN[C@H](CO)Cc1ccccc1)(Cc1c[nH]c2ccccc12)NC(=O)OC1C2CC3CC(C2)CC1C3` (stereo partly drawn) [Example 6, Tricyclo[3.3.1.1^3,7]dec-2-yl[R-(R*,S*)]-1-[[1(hydroxy-methyl)-2-phenylethyl]amino]-3-(1H-indol-3-yl)-2-methylprop-2-ylcarbamate], the Ki is 200 nM. The Ki values of the last two compounds are within 1.5-fold of each other.

`CC(CNC(=O)OC1C2CC3CC(C2)CC1C3)(Cc1c[nH]c2ccccc12)C(=O)N[C@H](COC(=O)CCC(=O)O)Cc1ccccc1` (stereo partly drawn) [Example 57] returned a Ki of 93 nM.

On to `C[C@@](Cc1c[nH]c2ccccc12)(NC(=O)OC1C2CC3CC(C2)CC1C3)C(=O)NCCC(=O)N[C@H](CO)Cc1ccccc1` (relative stereo) [Example 24, Carbamic acid, [1-(1H-indol-3-ylmethyl)-2-[[3-[[1-hydroxymethyl)-2-iphenylethyl]amino]-3-oxopropyl]-amino]-1-methyl-2-oxoethyl]-, tricyclo[3.3.1.1^3,7]dec-2-ylester, [S-(R*,R*)]-], for which the affinity corresponds to a Ki of 1100 nM. This Ki is about 12-fold higher than that of the compound before.
